Laboratory results taken from PMC9611734, “Alkaloid Derivative (Z)-3β-Ethylamino-Pregn-17(20)-en Inhibits Triple-Negative Breast Cancer Metastasis and Angiogenesis by Targeting HSP90α” (Molecules, 2022).

Molecular target: T1, HSP90α (Homo sapiens, UniProt P07900)
T1 construct: gene HSP90AA1; Recombinant human HSP90 alpha protein (ab80369)
Assay: SPR (Biacore T200, […] binding model); supported by CETSA for HSP90 in MDA-MB-231 cells

For `C/C=C1/CC[C@H]2[C@@H]3CCC4C[C@@H](NCC)CC[C@]4(C)[C@H]3CC[C@]12C` (stereo partly drawn) [compound 1, (Z)-3β-ethylamino-pregn-17(20)-en], which Kd is on record?
Its Kd is 21 µM.
